Data: patent US10130715B2 (priority 2013, dated 2018)
Where two headings read alike, the source gives them in different places.

Key:
[1] = Pilot study: plasma β-alanine and net retention after oral ingestion (GC-MS); type: in vivo, human
Protocol: Each subject completed three trials, labeled “A”, “B”, and “C” using a Latin square design (i.e. subject 1 completed trials in ABC order, subject 2 completed trials in BCA order, and subject 3 completed trials in CAB order). […] Blood samples were drawn into lithium heparin tubes at baseline (time 0), 30 min, 1 hr, 2 hr, 3 hr, 4 hr post ingestion, spun in a clinical centrifuge for 15 minutes, and processed to obtain plasma.

individuals = conditions: human, in vivo
Description: A minimum clinically significant difference in VAS rating for pain or paraesthesia appears to range from 13 mm to 16 mm with a 95% confidence interval. (See e.g., Gallagher, et al., Am J Emerg Med. 2002; 20(4):287-90; Bouhassira, et al., Pain. 2004; 108(3):248-57; Poliakov, et al. Eur J Pain. 2011 November; 15(10):1015-22; and Eisenberg, et al. Eur J Pain. 1998; 2(4):321-327). VAS rating instruments have also been deemed specific and sensitive to detect the effects of an intervention on paraesthesia and neuropathic pain.

[2] = cited from earlier work

Net Loss (uMol), Mean (SD) ([1]; Mean (SD) of 3 subjects): 9174.5 (862.96) uMol | Net Loss ([1]; Subject 1, 0-4 hr collection): 10167.5 µmol | Net Loss ([1]; Subject 2, 0-4 hr collection): 8606.6 µmol | Net Loss ([1]; Subject 3, 0-4 hr collection): 8749.3 µmol | anchored 100 mm VAS scores for paraesthesia (individuals): 60 mm-90 mm
SMILES: NCCC(=O)O [β-alanine, 3-Aminopropanoic acid]
severity of paraesthesia ([2]; oral doses of 40 mg/kg or higher): moderate-to-severe | severity of paraesthesia ([2]; oral doses of 40 mg/kg): severe | severity of paraesthesia ([2]; oral, 10 mg/kg): relatively mild
